Consider ten compounds from PubChem BioAssay (NCI).

SMILES strings stand for the structures.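 In this assay, cells in 96-well plates receive the compound at five concentrations for 48 hours. Endpoints are linearly interpolated between the surrounding concentrations. At the GI50, growth is halved. Definition used: TGI = concentration required for complete inhibition of growth.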 Some results are limits rather than exact numbers.

What all share (experiment): NCI-60 cell line screen, 48 h
Assay [1] relates to OVCAR-3 ovarian.
Assay [2] has as its system SK-MEL-2 melanoma.
For assay [3], the system named is HOP-62 NSCLC.
The test system of assay [4] is RXF 393 renal.
In assay [5] the test system is NCI-H460 lung.
Assay [6] concerns HT29 colon.
Assay [7] deals with SK-OV-3 ovarian.
Assay [8] deals with OVCAR-8 ovarian.
The subject of assay [9] is OVCAR-4 ovarian.
Assay [10] has as its system TK-10 renal.

Regarding `NCCOc1ncccc1/C=C1\c2ccccc2-c2ccc([N+](=O)[O-])cc21`, the GI50 is 0.181 µM in [1]; 0.314 µM in assay [2]; 0.0261 µM in assay [3]; 0.171 µM in assay [4]; under 0.0104 µM in assay [5]; 0.0898 µM in assay [6]. In addition, the GI50 is 0.0489 µM in assay [7], 0.0686 µM in assay [8], 0.194 µM in assay [9] and 0.126 µM in [10]. Moreover, the TGI in [1] came to 0.449 µM; in assay [2] it was 0.754 µM; in [3] it was 0.133 µM; in assay [4], 0.443 µM; in assay [5] it was 0.154 µM; in [6] it was 1.04 µM. For the same compound, the TGI was determined as 0.309 µM in assay [7], 0.705 µM in assay [8], 0.827 µM in assay [9] and 0.282 µM in assay [10].

For `O=C(N/C(=C/c1cccc([N+](=O)[O-])c1)c1nc2ccc(Cl)cc2[nH]1)c1ccccc1`, the TGI in assay [1] came to 76.6 µM; in assay [2], 50.3 µM; in assay [3], 62.5 µM; in assay [4] it was 39.9 µM; in assay [5], 51.7 µM; in [6] it was 50.9 µM. In addition, the TGI in assay [7] is 86.6 µM; in assay [8], 30.6 µM; in [9], 90.5 µM; in assay [10], 62.1 µM.

`COC(=O)CC(=O)NCC1=CCC(=O)CC1`: the TGI in [1], in assay [2], in assay [3], in assay [4], in assay [5] and in assay [6] was over 100 µM in each case. In addition, the TGI in assay [7], in assay [8], in assay [9] and in assay [10] was over 100 µM each time.

In the case of `Cn1cc(C2=C(c3ccccc3C(F)(F)F)C(=O)NC2=O)c2ccccc21`, the GI50 in assay [1] was 7.8 µM; in assay [2] it was 8.11 µM; in [3], 11.8 µM; in [4], 5.17 µM; in assay [5], 9.18 µM; in assay [6], 6.22 µM. The GI50 in assay [7] is 10.2 µM; in assay [8] it was 10.4 µM; in assay [9], 9.64 µM; in assay [10] it was 10.2 µM. Further, the TGI in assay [1] is 24.8 µM; in assay [2] it was over 24 µM; in assay [3], over 25 µM; in assay [4], 16.7 µM; in assay [5] it was over 25 µM; in [6], over 25 µM. Besides, the TGI in assay [7], in assay [8], in assay [9] and in assay [10] was over 25 µM throughout.

As for `COc1cc(-c2cc3ncccc3c3[nH]c(=O)c4cccnc4c23)cc(OC)c1OC`, the GI50 in assay [1] is 0.329 µM; in assay [2], 0.833 µM; in assay [3], 7.76 µM; in assay [4] it was 0.818 µM; in assay [5] it was 0.433 µM; in [6] it was 0.397 µM. Further, the GI50 in assay [7] was 1.35 µM; in assay [8], 2.51 µM; in [9] it was 8.87 µM; in assay [10], 17.2 µM. The TGI in assay [1] was over 100 µM; in assay [2], over 100 µM; in [3] it was over 100 µM; in assay [4], 26.2 µM; in [5], over 100 µM; in assay [6], over 100 µM. The TGI in assay [7], in assay [8], in assay [9] and in assay [10] was over 100 µM each time.

Turning to `NC(=S)N/N=C1/CN(c2ccc(Cl)c(Cl)c2)CC(=O)C1c1nc2ccccc2s1` (stereo not given), the TGI in [1], in assay [2], in [3], in assay [4], in assay [5] and in assay [6] was over 100 µM throughout. Further, the TGI in assay [7], in assay [8], in assay [9] and in assay [10] was over 100 µM throughout.

Take `CCOc1ccc(N=Cc2ccnc3ccccc23)cc1`: the TGI in [1] is 73.1 µM; in assay [2] it was over 85.3 µM; in [3], over 94 µM; in [4] it was over 100 µM; in assay [5], over 100 µM; in assay [6] it was over 100 µM. In addition, the TGI in assay [7] was over 83.3 µM; in assay [8], over 83.7 µM; in [9] it was over 100 µM; in assay [10], over 100 µM.

`CCN(CC)c1ccc2nc3ccc(N=Nc4ccc(O)cc4)cc3[n+](-c3ccccc3)c2c1`: the GI50 in assay [1] was 0.359 µM; in assay [2] it was 2.65 µM; in [3] it was 2.68 µM; in assay [4], 10.4 µM; in [5], 3.41 µM; in assay [6], 3.15 µM. The GI50 in assay [7] was 35.7 µM; in [8], 7.42 µM; in assay [9], 1.39 µM; in assay [10] it was 3.15 µM. Moreover, the TGI in assay [1] is 4.02 µM; in assay [2], over 100 µM; in assay [3], 15.1 µM; in assay [4], 24.8 µM; in assay [5], over 100 µM; in [6], over 100 µM. The TGI is over 100 µM in assay [7], over 100 µM in [8], 2.77 µM in assay [9] and over 100 µM in assay [10].

For the compound `CC(C)=C1CCC(CN2CCOCC2)C1=O` (stereo not given), the TGI is 18.4 µM in [1]; 36.6 µM in assay [2]; over 93.5 µM in assay [3]; 5.47 µM in assay [4]; 59 µM in [5]; 20.4 µM in assay [6]. Moreover, the TGI is over 100 µM in assay [7], 27.8 µM in assay [8], 15.6 µM in assay [9] and 19 µM in [10].

On to `CC1=C(C#N)C(/C=C(\Cl)c2ccc(F)cc2)C(C#N)=C(C)N1`, for which the GI50 in [1], in [2], in [3], in assay [4], in [5] and in [6] was over 100 µM in each case. In addition, the GI50 in assay [7], in assay [8], in [9] and in assay [10] was over 100 µM in each case. Further, the TGI in assay [1], in assay [2], in assay [3], in assay [4], in assay [5] and in assay [6] was over 100 µM throughout. Further, the TGI in assay [7], in [8], in [9] and in [10] was over 100 µM each time.
